Measurements published in patent publication US20110038931A1, “COMPOSITE PREPARATION” (HANALL BIOPHARMA CO., LTD., priority 2008, published 2011).

Columns and labels:
[1] = system: ADP-induced platelet aggregation; assay: Measurement of ADP-induced platelet aggregation in SD rats (PRP, aggregometer); assay type: in vivo, Rats (male); conditions: single drug 10 mg/kg, light
Procedure: (§1) Animal tests supporting the effects of the present invention were carried out as described in Table 8 below.

[2] = system: SD rats; assay: Bleeding time measurement in SD rats; assay type: in vivo, Rats (male); conditions: 10 mg/kg p.o. once, light, 2 hours after administration
Procedure: as §1

Structure (SMILES): CC(=O)Oc1ccccc1C(=O)O [Aspirin, acetylsalicylic acid]
- Platelet aggregation [1]: 83.5 ± 16.7%
- Bleeding time [2]: 930 ± 296 s

Structure (SMILES): COC(=O)[C@H](c1ccccc1Cl)N1CCc2sccc2C1 [Clopidogrel, methyl (+)-(S)-α-(o-chlorophenyl)-6,7-dihydrothieno[3,2-c]pyridine-5(4H)-acetate]
- Platelet aggregation [1]: 77.1 ± 20.9%
- Bleeding time [2]: 1177 ± 729 s
